This is an account of results in US20240350454A1, “BACTERIAL EFFLUX PUMP INHIBITORS AND METHODS OF USE” (THE REGENTS OF THE UNIVERSITY OF COLORADO, priority 2021, published 2024).

Peptide text beside a SMILES is read from it. * marks the point of attachment. βNA = c1ccc2cc(N*)ccc2c1

Holding throughout (format): cell-based
What all share (details): comparator at 25 μg/mL in MHB

For one experiment, the system named is A. baumannii MB306. Briefly: Chloramphenicol MIC with selected compound in MHB. From the text: (§1) MIC for the antibiotic alone (i.e., in the absence of the disclosed compounds) is provided in the first row labeled “None”. […] […] […] Thus, the compounds of the disclosure may be used to potentiate the activity of antibiotics that have lost their efficacy due to efflux.

In another experiment the test system is A. baumannii MB309. Briefly: Chloramphenicol MIC with selected compound in MHB.
Excerpt: as §1

In experiment [1] the test system is K. pneumoniae BAA-2342. Briefly: Chloramphenicol MIC with selected compound in MHB.
Excerpt: as §1

The subject of experiment [2] is E. cloacae BAA-2341. Briefly: Chloramphenicol MIC with selected compound in MHB.
Excerpt: as §1

The subject of experiment [3] is E. coli BAA-2340. Briefly: Doxycycline MIC with selected compound in MHB.
Excerpt: as §1

Experiment [4] concerns K. pneumoniae BAA-2342. Briefly: Doxycycline MIC with selected compound in MHB.
Excerpt: as §1

In experiment [5] the test system is K. pneumoniae BAA-1705. Briefly: Doxycycline MIC with selected compound in MHB.
Excerpt: as §1

Experiment [6] relates to E. cloacae BAA-2341. Briefly: Ciprofloxacin MIC with selected compound in MHB.
The subject of experiment [7] is S. enterica sp. Enterica S10801. Briefly: Doxycycline MIC with selected compound in MHB. The procedure:
The wild-type S. enterica serovar Typhimurium strain, SL1344, was initially isolated from the blood of an infected calf. For screening and validation in macrophages, SL1344 sifB::gfp was grown in Luria-Bertani Broth (LB) with 30 μg/ml streptomycin and 30 μg/ml kanamycin to saturation overnight, diluted to an OD of 0.001 and frozen in 100 μL aliquots in 20% glycerol at −80° C. Prior to infection, aliquots were grown in 5 mL cultures of LB with 30 μg/ml streptomycin and 30 μg/ml kanamycin for 18 hours at 37° C. with aeration. Bacterial strains were routinely grown in LB with antibiotics: 30 μg/ml streptomycin, 30 μg/ml kanamycin, 50 μg/ml ampicillin, 10 μg/ml tetracycline, and/or 1.15 μg/ml meropenem. The acrAB::kan and macAB::kan strains were constructed according to known methods. S. enterica subsp. enterica, serovar Typhimurium strain S10801, NR-22067 is a multidrug resistant isolate from a calf with sepsis. This strain and others as indicated were obtained through BEI resources, NIAID, NIH.
MIC for the antibiotic alone (i.e., in the absence of the disclosed compounds) is provided in the first row labeled “None”. […] At this concentration (50 μg/mL), the compounds of the disclosure lacked intrinsic antibacterial activity but a significant improvement in efficacy was still observed. […]

Experiment [8] has as its system E. coli BAA-2340. Briefly: Chloramphenicol MIC with selected compound in MHB. The procedure:
(§2) MIC for the antibiotic alone (i.e., in the absence of the disclosed compounds) is provided in the first row labeled “None”. […] […] At this concentration (50 μg/mL), the compounds of the disclosure lacked intrinsic antibacterial activity but a significant improvement in efficacy was still observed. Thus, the compounds of the disclosure may be used to potentiate the activity of antibiotics that have lost their efficacy due to efflux.

For experiment [9], the system named is P. aeruginosa Focus MB0477. Briefly: Chloramphenicol MIC with selected compound in MHB. The procedure:
as §2

The next experiment relates to E. Cloacae MB315. Briefly: PMB MIC with selected compound in MHB. The protocol: as §2
Experiment [10] concerns E. cloacae BAA-2341. Briefly: Doxycycline MIC with selected compound in MHB. The protocol:
as §2

Experiment [11] has as its system E. coli BAA-2340. Briefly: Ciprofloxacin MIC with selected compound in MHB.
The subject of experiment [12] is K. pneumoniae BAA-1705. Briefly: Ciprofloxacin MIC with selected compound in MHB. The protocol:
as §2

In experiment [13] the test system is K. pneumoniae BAA-2342. Briefly: Ciprofloxacin MIC with selected compound in MHB.

As to `N=C(N)NCCC[C@H](NC(=O)[C@@H](N)Cc1ccccc1)C(=O)Nc1ccc2ccccc2c1` [PAβN] (H-Phe-Arg-βNA), the “Chloramphenicol MIC” value with A. baumannii MB306 amounted to 32 µg/mL; in the experiment on A. baumannii MB309, 64 µg/mL; in the experiment with K. pneumoniae BAA-2342 [1], 8 µg/mL; with E. cloacae BAA-2341 [2] it was 2 µg/mL; in the experiment on E. coli BAA-2340 [8], 8 µg/mL; in experiment [9] it was 1 µg/mL. Also, the “Doxycycline MIC” value is at most 1 µg/mL in the experiment with E. coli BAA-2340 [3]; at most 1 µg/mL with K. pneumoniae BAA-2342 [4]; at most 1 µg/mL in the experiment on K. pneumoniae BAA-1705 [5]; 8 µg/mL in experiment [7]; at most 1 µg/mL in the experiment with E. cloacae BAA-2341 [10]. The “Ciprofloxacin MIC” value is 16 µg/mL in the experiment with E. cloacae BAA-2341 [6], 16 µg/mL in the experiment on E. coli BAA-2340 [11], 64 µg/mL in the experiment with K. pneumoniae BAA-1705 [12] and 16 µg/mL in the experiment on K. pneumoniae BAA-2342 [13]. Moreover, the “PMB MIC” value with E. Cloacae MB315 came out at 32 µg/mL.
